Where only a bound is given, the exact number is not on record here.

As a reminder, the inhibition is the relative decrease from the control value, in per cent. By IC50 is commonly meant the point on the concentration scale where inhibition reaches its midpoint. Broadly, the GI50 is the concentration at which growth is held to half of that of the control.

In experiment [1] the test system is full length AR (AR-FL) mRNA. In words: Androgen receptor RNA level expression (qRT-PCR) in 22Rv1: AR-FL. The class given is cell-based. To be noted: 22Rv1, 1 μM, 48 h; for mrna remaining at 1 µM: Homo sapiens, normalized to untreated control (vehicle/DMSO). As for the experimental part: (§1) The prostate cancer cell line 22Rv1 was treated for 48 h with 1 μM Example compound 1, 1/1, 1/2, 2/1, 2/2, 2/3, 2/4, 2/5, 2/6, 2/7, 2/8, 2/9 and 2/10 and the reference compounds SR2211 and XY018 (Nat. Med. 2016; 22:488). RNA was extracted using the RNA isolation kit XS (Macherey-Nagel) and following the manufacture's manual. RNA quantity was measured with the Nanodrop before reverse transcription using Superscript II (Invitrogen #100004925). For the quantitative real-time PCR with SYBR-Green (Qiagen #204074), the following primers were used: AR forward-ACATCAAGGAACTCGATCGTATCATTGC and reverse-TTGGGCACTTGCACAGAGAT, AR-V7: forward-CCATCTTGTCGTCTTCGGAAATGTTATGAAGC and reverse-TTTGAATGAGGCAAGTCAGCCTTTCTT. The qRT-PCR proceeded as follows: denaturation for 5 min 95° C.; 40 cycles of “20 sec at 95° C. and 15 sec at 60° C.” and at the end of the last cycle, the melting temperature of the products was determined by gradually increasing it from 60° C. to 99° C. CT values from all samples were normalized to two different reference (housekeeping) genes using the mean CT value of the GAPDH and YWHAZ (reference genes). Next the values are normalized to the untreated control (vehicle/DMSO).
On the technique in general: Quantitative PCR measures a nucleic acid by following its amplification.

Experiment [2] deals with prostate cancer cell line 22RV1, DU145, LNCAP, PC3 and VCaP. The experiment can be described thus: Oncolead profiling in a panel of 5 prostate cancer cell lines (summary). To be noted: for inhibition at 30 µM: highest concentration (30 μM), VCaP cell line not included, read-out: average growth inhibition; for growth inhibition: in 4 of 5 prostate cancer cell lines. Format: cell-based. As for the experimental part: (§2) Cell growth was assessed by measuring protein content using sulforhodamin B. Growth inhibition was calculated by (TCMD−T0)/TNCT72h−T0)*100% with TCMD is the tumor growth at 72 h with the respective compound concentration. To is the protein content of the cell line before treatment and TNCT72h is the tumor growth of the DMSO control.

A further experiment concerns IL-17F. The experiment can be described thus: Cytokine assay, human PBMC stimulated with PHA: IL-17F. Format: cell-based. To be noted: PHA-activated, 48 hours, read-out: IL-17F inhibition (IC50 range). As for the experimental part:
(§3) Peripheral blood mononuclear cells (PBMC) from healthy human donors were purified using Accuspin™ System-Histopaque-1077 (Sigma) according to the protocol recommended by the manufacturer. Purified PBMC were then washed twice with phosphate-buffered saline (PBS) and resuspended in RPMI1640 culture medium supplemented with 10% dialyzed heat inactivated fetal calf serum, 1.5 mM L-glutamine, 100 U penicillin/mL and […] streptomycin/mL (all from PAN Biotech, Aidenbach, Germany). For stimulation, PBMC were seeded at 1×10^5 cells/well, activated with 2 gg/mL phytohaemagglutinin (PHA, Sigma) and incubated with the test compounds for 48 hours. IL-17A, IL-17F and INFγ were then determined in the culture supernatant using a Luminex BioPlex system, following the manufacturer's instructions (BioRad, Munich, Germany). To determine the IC50, compounds were titrated semilogarithmically.
(§4) Cytokines were determined in the aforementioned culture supernatant using the following methods: IL-17A was measured using the human homodimer IL-17A ELISA Ready Set Go Kit from cBioscience (Frankfurt, Germany); IL-17F using the human IL-17F ELI-Pair from Holzel Diagnostica GmbH (K51n, Germany); and IFNγ using the OptEIA human IFN-g ELISA from BD Bioscience (Heidelberg, Germany), all following the manufacturer's instructions.

In another experiment the test system is KLK2 mRNA. In words: Expression of AR target genes (qRT-PCR) in 22Rv1: KLK2. Format: cell-based. To be noted: 22Rv1, 1 μM; for mrna remaining at 1 µM: Homo sapiens, 48h, relative to vehicle control (DMSO). On the procedure: The prostate cancer cell line 22Rv1 was treated for 48h with 1 μM Example compound 1, 1/1, 2/1, 2/2, 2/3, 2/4, 2/5, 2/6, 2/7, 2/8, 2/9 and 2/10 and reference compounds SR2211 and XY018. RNA was extracted using the RNA isolation kit XS (Macherey-Nagel) and following the manufacture's manual. RNA quantity was measured with the Nanodrop before reverse transcription using Superscript II (Invitrogen #100004925). For the quantitative real-time PCR with SYBR-Green (Qiagen #204074), the following primers were used:
qRT-PCR was performed using SYBR-Green (Qiagen #204074) reagents in a PCR cycler (Gorbett Research) Rotor Gene RG3000 with the following program: denaturation for 5′ at 95° C.; 40 cycles of 20″ at 95° C. and 15″ at 60° C.″ and at the end of the last cycle, the melting temperature of the products was determined by gradually increasing from 60° C. to 99° C. CT values from all samples were normalized to reference (housekeeping) genes using the mean CT value of the GAPDH and YWHAZ (reference genes). Next the values are put relative to the untreated control (vehicle/DMSO).

Experiment [3] relates to prostate cancer cell line 22RV1. In words: Oncolead sulforhodamin B growth inhibition, 22RV1. The class given is cell-based. To be noted: Homo sapiens, sulforhodamin B assay, 72 and 120 h treatment, read-out: GI50 range 22RV1. As for the experimental part:
as §2

For another experiment, the system named is AR-FL protein. In words: Androgen receptor protein expression (western blot) in 22Rv1: AR-FL. Format: cell-based, human. Particulars: 22Rv1, 6 μM, 48 h; for AR-FL protein level: western blot quantification. On the procedure:
After 48 h, cell were lysed using cell extraction buffer (Life Technologies #FNN0011) for western blot. […] The membrane is then incubation for 1 hour in blocking buffer (5% milk in 20 mM Tris, 150 mM NaCl, pH 7.5, 0.05% Tween 20 [TBS-T]). After this incubation, the primary antibody is added and incubated overnight at 4° C. After washing, the membrane was incubated with the secondary antibody for 1 h. Visualization of the bands was performed using the femto maximum sensitivity substrate reagent and the luminescence signal recorded with the Fusion FX7 (Vilber). For protein quantification, InageJ was used.
In general terms: Immunoblotting shows a protein as a band on a membrane.

For another experiment, the system named is IL-17A. In words: Cytokine assay, human PBMC stimulated with PHA: IL-17A. To be noted: PHA-activated, 48 hours, read-out: IL-17A inhibition (IC50 range). Format: cell-based. On the procedure: as §3, §4
A further experiment relates to AR-V7 mRNA. In words: Androgen receptor RNA level expression (qRT-PCR) in 22Rv1: AR-V7. Format: cell-based. To be noted: 22Rv1, 1 μM, 48 h; for mrna remaining at 1 µM: Homo sapiens, normalized to untreated control (vehicle/DMSO). As for the experimental part:
as §1

Experiment [4] deals with prostate cancer cell line DU145. The experiment can be described thus: Oncolead sulforhodamin B growth inhibition, DU145. Format: cell-based. To be noted: Homo sapiens, DU-145; sulforhodamin B assay; 72 and 120 h treatment; read-out: GI50 range DU145. As for the experimental part:
as §2

With `CC(C)(O)CCn1ncc(-c2onc(-c3c(F)cccc3Cl)c2-c2ncccn2)c1C(F)(F)F` [2/8], in [1], the “full length AR (AR-FL) mRNA expression” value is given as “strong reduction” and the mrna remaining at 1 µM stood at 44.9%. In experiment [2], the inhibition at 30 µM was determined as 80% and the “growth inhibition” value is listed as “strong growth inhibition”. Also, the IC50 with IL-17F is less than 25 nM. In addition, the “KLK2 mRNA level expression” value in the experiment on KLK2 mRNA (48 h) is “strong inhibition”. The molecule further had a mrna remaining at 1 µM in the experiment on KLK2 mRNA of 60.8%. Also, the GI50 in experiment [3] is less than 25 nM. Further, in the experiment with AR-FL protein, the “AR-FL protein levels” value is “strong reduction” and the AR-FL protein level is listed as 0.421. Besides, the IC50 in the experiment with IL-17A is less than 25 nM. Further, in the experiment with AR-V7 mRNA, the “AR-V7 mRNA expression” value is reported as “strong reduction” and the mrna remaining at 1 µM worked out at 34.8%. Besides, in experiment [4], the GI50 was less than 25 nM.

As for `COC(=O)c1c(-c2c(F)cccc2Cl)noc1-c1cnn(-c2cccc(Cl)c2)c1C(F)(F)F` [Example 1, Methyl 3-(2-chloro-6-fluorophenyl)-5-(1-(3-chlorophenyl)-5-(trifluoromethyl)-1H-pyrazol-4-yl)isoxazole-4-carboxylate], in experiment [1], the “full length AR (AR-FL) mRNA expression” value is “strong reduction” and the mrna remaining at 1 µM stood at 44.2%. For the same molecule, in experiment [2], the inhibition at 30 µM is 80% and the “growth inhibition” value is “strong growth inhibition”. For the same molecule, the IC50 in the experiment with IL-17F is less than 25 nM. In addition, the mrna remaining at 1 µM with KLK2 mRNA turned out to be 59.8%. Moreover, the GI50 in experiment [3] was less than 25 nM. Also, in the experiment on AR-FL protein, the “AR-FL protein levels” value was “strong reduction” and the AR-FL protein level is recorded as 0.474. Also, in the experiment on IL-17A, the IC50 is less than 25 nM. Also, in the experiment on AR-V7 mRNA, the “AR-V7 mRNA expression” value is given as “strong reduction” and the mrna remaining at 1 µM was determined as 37%. Further, the GI50 in [4] was less than 25 nM.

`Fc1cccc(Cl)c1-c1noc(-c2cnn(-c3cccc(Cl)c3)c2C(F)(F)F)c1-c1nccs1` [Example 1/1]: in experiment [1], the “full length AR (AR-FL) mRNA expression” value is listed as “strong reduction” and the mrna remaining at 1 µM amounted to 43.6%. Besides, in experiment [2], the inhibition at 30 µM was 80% and the “growth inhibition” value is recorded as “strong growth inhibition”. For the same molecule, the IC50 in the experiment on IL-17F is less than 25 nM. Further, the mrna remaining at 1 µM with KLK2 mRNA came out at 74.2%. The GI50 in [3] is less than 25 nM. In the experiment with AR-FL protein, the “AR-FL protein levels” value is reported as “strong reduction” and the AR-FL protein level is reported as 0.482. In the experiment with IL-17A, the IC50 is less than 25 nM. In addition, in the experiment on AR-V7 mRNA, the “AR-V7 mRNA expression” value is recorded as “strong reduction” and the mrna remaining at 1 µM was found to be 39.5%. The GI50 in [4] was less than 25 nM.

Source of the values: patent US20240368145A1, “METHODS FOR TREATING CANCER” (IMMUNIC AG, priority 2021, published 2024).
